Marks after values point to notes of the source that are not given here. Primed or numbered codes have the meaning given here. The star is where a group is joined. Ac7‑β‑Mal = peracetylated β-maltose, CC(=O)OC[C@H]1O[C@@H](*)[C@H](OC(C)=O)[C@@H](OC(C)=O)[C@@H]1O[C@H]1O[C@H](COC(C)=O)[C@@H](OC(C)=O)[C@H](OC(C)=O)[C@H]1OC(C)=O; Ac3‑α‑GalNAc = per-acetylated α-N-acetylgalactosamine (O-glycoside), CC(=O)N[C@@H]1[C@@H](OC(C)=O)[C@@H](OC(C)=O)[C@@H](COC(C)=O)O[C@@H]1*; Ac4‑β‑Glc″ = peracetylated beta-glucose, CC(=O)OC[C@H]1O[C@@H](*)[C@H](OC(C)=O)[C@@H](OC(C)=O)[C@@H]1OC(C)=O; Ac4‑α‑Man = per-acetylated α-mannose, CC(=O)OC[C@H]1O[C@H](*)[C@@H](OC(C)=O)[C@@H](OC(C)=O)[C@@H]1OC(C)=O; βGlcNAc = CC(=O)N[C@@H]1[C@@H](O)[C@H](O)[C@@H](CO)O[C@H]1*; Palmitoyl = CCCCCCCCCCCCCCCC(=O)*

One series has as its system human lung fibroblasts. Conditions: human lung fibroblasts in vitro; cited from earlier work.
In series [1] the test system is Human Dermal Fibroblasts (KMST-6). Nature of the series: ECM ELISA assay: elastin secretion by human dermal fibroblasts. The series is classed as cell-based. Conditions: 5 μM; for Elastin Secretion at 48 hours: KMST-6, 48 hours; for Elastin Secretion at 48 hours / Elastin Secretion at 72 hours: % compared to control set at 100%, normalized to total protein. A digest of the protocol: (§1)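 KMST-6 human dermal fibroblasts treated with 5 μM compound in serum-free medium with sodium ascorbate and β-aminopropionate fumarate for 48 and 72 h. Secreted fibronectin and elastin quantified by ELISA (450 nm, 4-parameter standard curve), normalized to total cellular protein and expressed as % of DMSO control.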

For series [2] the test system is unchanged. Nature of the series: ECM ELISA assay: fibronectin secretion by human dermal fibroblasts. The series is classed as cell-based. Conditions: 5 μM; for Fibronectin secretion at 48 hours: KMST-6, 48 hours; for Fibronectin secretion at 48 hours / Fibronectin Secretion at 72 hours: % compared to control set at 100%, normalized to total protein. The method in brief:
as §1
(An ELISA detects its analyte on a solid surface through an enzyme-linked reagent.)

The subject of series [3] is MatTek's EpiDermFT 3D human in vitro skin model. Nature of the series: Histology (hematoxylin & eosin) of 3D human in vitro skin model. The series is classed as cell-based. Conditions: 5 μM, 72 hours post treatment. On the procedure: MatTek's EpiDermFT™ 3D human in vitro skin model was produced by MatTek Corporation (Ashland, Mass., USA). The 3D skin model is comprised of normal human epidermal keratinocytes (NHEK) and normal human dermal fibroblasts (NHDF) derived from neonatal-foreskin tissue and adult skin, respectively. […] The tissues were grown at air-liquid interface in Costar Snapwell™ single well tissue culture plate inserts with 0.4 μm pore size, 1.2 cm in diameter and 1.0 cm^2 surface area. For tissue maintenance, serum-free EFT-400-ASY media was used containing Dulbecco's Modified Eagle's Medium (DMEM), epidermal growth factor, insulin, hydrocortisone, 5 μg/mL gentamicin, 0.2 μg/ml amphotericin B and phenol red.
Tissues were rinsed twice with 1% PBS and treated with 5 μM GP003-9, reference (Pal-KTTKS, CPC Scientific, 822197), and control (DMSO, Fisher, BP231-100). At 72 hours post treatment, the tissue was fixed in 10% neutral buffered formalin overnight and transferred to 1% PBS the next day. […]
MatTek's EpiDermFT™, which is a 3D human in vitro skin model (comprised of normal human epidermal ketatinocytes and normal human dermal fibroblasts), was used to further investigate the effects of an exemplary glycosylated peptide (GP003-9 (SEQ ID NO: 6)) on human skin. […] At 72 hours post treatment, supernatants were isolated and analysed for elastin secretion. […]

Series [4] deals with Human Dermal Fibroblasts (KMST-6). Put plainly: Total Collagen Assay (Sirius Red Collagen Detection Kit). The series is classed as cell-based. The note with it: 5 μM. The method, then:
KMST-6 cells (Japan Health Sciences Foundation, JCRB0433) were seeded at 7,000 cells/mL in 60 mm tissue culture treated plates (Falcon, 353002) in complete media. The complete media consisted of the following: MEM/EBSS (Hyclone, SH30024.01), 10% Heat-Inactivated FBS (Gibco, 10082-147), 1% L-Glutamine (Hyclone, SH30031.01), 1% Nucleosides (800 mg/L Adenosine, 850 mg/L Guanidine, 730 mg/L Cytidine, 730 mg/L Uridine and 240 mg/L Thymidine), 1% Penicillin/Streptomycin (HyClone, SV30010), 1% Sodium Pyruvate (HyClone, SH30239.01), 1% Non-Essential Amino Acids (Hyclone, SH30238.01) and 0.04% Gentamicin (Gibco, 15710-064). Cells were grown for 2 days prior to treatments. The cells were washed with 1×PBS (Fisher, SH30256.01) and treated with 5 μM glycopeptides (GP003-9, GP004-3, GP004-4), reference (Pal-KTTKS, CPC Scientific, 822197), and control (DMSO, Fisher, BP231-100) in serum-free media supplemented with 50 µg/mL Sodium Ascorbate (Sigma, A4034) and 80 μg/mL β-Aminopropionate Fumarate (Sigma, A3134). The treated cells were incubated at 37° C. and 5% CO2 for 48 and 72 hours. At each timepoint, media from each treatment was collected and centrifuged at 1500 RPM for 15 minutes at 4° C. The supernatant was collected and stored at −80° C. for extracellular matrix protein quantification. The following kit was used for quantification of total collagen: Sirius Red Collagen Detection Kit (Chondrex Inc., 9062). The cells were harvested and lysed with Lysis Buffer (20 mM Tris-HCl (Sigma, T1503), 137 mM NaCl (Sigma, S9888), 2 mM EDTA (Fisher, BP118), 1% IGEPAL (Sigma, 18896), 10% Glycerol (Sigma, G5516), 100 μM PMSF (Fisher, 36978) and 10 μg/mL Leupeptin (Sigma, L2884)). They were placed on a container of ice on an orbital shaker (VWR, 89032-088) for 30 minutes. The cell lysate was centrifuged at 10,000 g for 5 minutes at 4° C. The supernatant was collected and used for protein quantification (BioRad, 500-0112). […]

Where [5] appears, read: 72 hours, versus Pal-KTTKS reference.

“Lys-Thr-Thr-Lys-Ser (KTTKS; listed as Homo sapiens) [pentapeptide derived from the carboxyl-terminus of type I procollagen]”: in the series on human lung fibroblasts, the “ECM proteins (synthesis of collagen types I and III and fibronectin)” value is listed as “significantly augment the ECM proteins”.
As to “Pal-KTTKS(β-GlcNAc)-OH (Palmitoyl-KTTKS(βGlcNAc)-OH; SMILES CCCCCCCCCCCCCCCC(=O)N[C@@H](CCCCN)C(=O)N[C@H](C(=O)N[C@H](C(=O)N[C@@H](CCCCN)C(=O)N[C@@H](CO[C@@H]1O[C@H](CO)[C@@H](O)[C@H](O)[C@H]1NC(C)=O)C(=O)O)[C@@H](C)O)[C@@H](C)O; listed as Homo sapiens) [GP002-6]”, the “Elastin Secretion at 48 hours” value in series [1] was 150.7%. Besides, the “Elastin Secretion at 72 hours” value in series [1] (KMST-6, 72 hours) came out at 111.0%. For the same compound, the “Fibronectin secretion at 48 hours” value in series [2] is reported as 109.7%. In addition, in series [2] (KMST-6, 72 hours), the “Fibronectin Secretion at 72 hours” value was 115.8%.
On to `CCCCCCCCCCCCCCCC(=O)N[C@@H](CCCCN)C(=O)N[C@H](C(=O)N[C@H](C(=O)N[C@@H](CCCCN)C(=O)N[C@@H](CO)C(=O)O)[C@@H](C)O)[C@@H](C)O[C@@H]1O[C@H](COC(C)=O)[C@@H](O[C@H]2O[C@H](COC(C)=O)[C@@H](OC(C)=O)[C@H](OC(C)=O)[C@H]2OC(C)=O)[C@H](OC(C)=O)[C@H]1OC(C)=O` [GP003-9, Pal-KT(Ac7-β-Mal)TKS-OH], for which, in series [3], the “effect on the histology of the 3D human skin model” value is given as “no detrimental effect”.
On to “Pal-KT(Ac3-α-GalNAc)TKS-OH (Palmitoyl-KT(Ac3‑α‑GalNAc)TKS-OH; SMILES CCCCCCCCCCCCCCCC(=O)N[C@@H](CCCCN)C(=O)N[C@H](C(=O)N[C@H](C(=O)N[C@@H](CCCCN)C(=O)N[C@@H](CO)C(=O)O)[C@@H](C)O)[C@@H](C)O[C@H]1O[C@H](COC(C)=O)[C@H](OC(C)=O)[C@H](OC(C)=O)[C@H]1NC(C)=O; listed as Homo sapiens) [GP001-3]”, for which the “Elastin Secretion at 48 hours” value in series [1] was determined as 123.3%. The “Elastin Secretion at 72 hours” value in series [1] (KMST-6, 72 hours) worked out at 132.5%. Besides, the “Fibronectin secretion at 48 hours” value in series [2] is 163.8* %. Moreover, in series [2] (KMST-6, 72 hours), the “Fibronectin Secretion at 72 hours” value is on record as 117.4%.
“Pal-KTT(Ac7-β-Mal)KS-OH (Palmitoyl-KTT(Ac7‑β‑Mal)KS-OH; SMILES CCCCCCCCCCCCCCCC(=O)N[C@@H](CCCCN)C(=O)N[C@H](C(=O)N[C@H](C(=O)N[C@@H](CCCCN)C(=O)N[C@@H](CO)C(=O)O)[C@@H](C)O[C@@H]1O[C@H](COC(C)=O)[C@@H](O[C@H]2O[C@H](COC(C)=O)[C@@H](OC(C)=O)[C@H](OC(C)=O)[C@H]2OC(C)=O)[C@H](OC(C)=O)[C@H]1OC(C)=O)[C@@H](C)O; listed as Homo sapiens) [GP004-3]”: the “biological activity in elastin secretion compared to control” value in series [1] (72 hours) was “greater biological activity”. For the same compound, the “increased elastin secretion compared to control” value in series [1] (72 hours, versus DMSO control) was determined as 285%. In addition, the “increased secretion of elastin compared to the reference peptide” value in series [1] (setting [5]) was 252%. In addition, in series [1], the “Elastin Secretion at 48 hours” value was determined as 226.1%. For the same compound, the “Elastin Secretion at 72 hours” value in series [1] (KMST-6, 72 hours) is listed as 384.7* %. Further, the “ELASTIN (ECM Protein Summary Table)” value in series [1] (KMST-6, 72 hours, control 100%) is listed as 385*^# %. Also, in series [2] (72 hours), the “biological activity in fibronectin secretion compared to control” value is “greater biological activity”. In series [2] (72 hours, versus DMSO control), the “increased fibronectin secretion compared to control” value was found to be 68%. Also, the “increased fibronectin secretion compared to reference” value in series [2] (setting [5]) was found to be 50%. Besides, the “Fibronectin secretion at 48 hours” value in series [2] is 185.0* %. In addition, the “Fibronectin Secretion at 72 hours” value in series [2] (KMST-6, 72 hours) is 168.3* %. For the same compound, the “FIBRONECTIN (ECM Protein Summary Table)” value in series [2] (KMST-6, 72 hours, control 100%) is recorded as 168*^# %. Besides, the “increased total collagen secretion compared to control” value in series [4] (72 hours, versus DMSO control) is 31%. Moreover, in series [4] (setting [5]), the “increased total collagen secretion compared to the reference peptide” value is listed as 21%. In addition, the “TOTAL COLLAGEN (ECM Protein Summary Table)” value in series [4] (KMST-6, 72 hours, control 100%) is recorded as 131*^# %.
On to “Pal-KN(Ac4-β-Glc)TKS-OH (Palmitoyl-KN(Ac4‑β‑Glc″)TKS-OH; listed as Homo sapiens) [GP003-5]”, for which, in series [1], the “Elastin Secretion at 48 hours” value was 211.4%. Besides, the “Elastin Secretion at 72 hours” value in series [1] (KMST-6, 72 hours) was determined as 194.2%. Further, the “Fibronectin secretion at 48 hours” value in series [2] is reported as 146.0%. In series [2] (KMST-6, 72 hours), the “Fibronectin Secretion at 72 hours” value is reported as 136.0%.
Turning to “Pal-KS(Ac4-β-Glc)TKS-OH (Palmitoyl-KS(Ac4‑β‑Glc″)TKS-OH; SMILES CCCCCCCCCCCCCCCC(=O)N[C@@H](CCCCN)C(=O)N[C@@H](CO[C@@H]1O[C@H](COC(C)=O)[C@@H](OC(C)=O)[C@H](OC(C)=O)[C@H]1OC(C)=O)C(=O)N[C@H](C(=O)N[C@@H](CCCCN)C(=O)N[C@@H](CO)C(=O)O)[C@@H](C)O; listed as Homo sapiens) [GP003-3]”, the “Elastin Secretion at 48 hours” value in series [1] worked out at 177.1%. Also, the “Elastin Secretion at 72 hours” value in series [1] (KMST-6, 72 hours) is on record as 146.8%. In series [2], the “Fibronectin secretion at 48 hours” value is 162.0* %. The “Fibronectin Secretion at 72 hours” value in series [2] (KMST-6, 72 hours) was 138.8%.
Turning to “Pal-KT(Ac4-α-Man)TKS-OH (Palmitoyl-KT(Ac4‑α‑Man)TKS-OH; SMILES CCCCCCCCCCCCCCCC(=O)N[C@@H](CCCCN)C(=O)N[C@H](C(=O)N[C@H](C(=O)N[C@@H](CCCCN)C(=O)N[C@@H](CO)C(=O)O)[C@@H](C)O)[C@@H](C)O[C@H]1O[C@H](COC(C)=O)[C@@H](OC(C)=O)[C@H](OC(C)=O)[C@@H]1OC(C)=O; listed as Homo sapiens) [GP003-1]”, the “Elastin Secretion at 48 hours” value in series [1] is 464.1* %. Moreover, the “Elastin Secretion at 72 hours” value in series [1] (KMST-6, 72 hours) is on record as 413.6* %. Moreover, in series [2], the “Fibronectin secretion at 48 hours” value was 193.7* %. Also, the “Fibronectin Secretion at 72 hours” value in series [2] (KMST-6, 72 hours) worked out at 125.3%.
